Key:
NT2/D1 cells = experiment: Cell-Titre Glo viable cell growth and survival, 3 day decitabine; type: cell-based; conditions: 72 h, read-out: IC50, growth inhibition
Protocol: (§1) Indicated doses of decitabine were added fresh each day for three days to exponentially growing cultures. Viable cell growth and survival were measured. Data are normalized to no drug treatment. EC cells are NT2/D1, NT2D1/R1, 833K, 833KCP, and Tera-1. Data are the average of 3 experiments in biological duplicate except for MCF-7 cells, which were assayed twice. Error bars are standard deviation (S.D.).
(§2) Cell growth and viability of five EC cell lines (NT2/D1, NT2D1/R1, 833K, 833KCP, and Tera-1) were determined, including two cell lines that are cisplatin-resistant (NT2/D1-R1 and 833KCP). Three control somatic tumor cell lines were also tested (HCT116, MCF7 and U2OS). […] Viable cell growth and survival were measured using Cell-Titre Glo (Promega) assays. […] These higher values are similar to the values shown in FIG. 1 for somatic tumor cell lines (MCF7, U2OS and HCT116).
(§3) NT2/D1, NT2D1-R1, 833K, 833K-CP, Tera-1, U20S, and HCT116 cells were cultured in DMEM with 10% FBS supplemented with glutamine and antibiotics except for MCF7 cells that were cultured in F12-DMEM. The derivation of the NT2/D1-resistant NT2/D1-R1 cell line has been previously described (Curtin et al. 2001. Oncogene 20:2559-2569; Kerley-Hamilton et al. 2007. Biochim. Biophys. Acta 1769:209-219). Cells were treated with the indicated dosages of 5-azadeoxycytidine (5-aza-CdR) for 3 days. This drug was replenished each day. Cisplatin (Bristol Laboratories) treatments were performed at the concentrations and time points indicated. To assess cell proliferation and survival, CELL-TITRE GLO (Promega) assays were performed.
(§4) Cells were cultured in DMEM media (Gibco) with 10% FBS. Decitabine was added fresh each day. Lentiviral control cells and the stable shRNA DNMT3B knockdown cell line (NT2/D1-R1-sh84) were described previously (Beyrouthy et al. 2009. Cancer Res. 69:9360-9366). DNMT3B knockdown was greater than 90% as confirmed by western blot analysis. Cell proliferation and survival were assessed with the CELL-TITRE GLO assay (Promega). Cell cycle analysis with propidium iodine has been previously described (Kerley-Hamilton et al. 2005. Oncogene 24:6090-6100).

NT2/D1-R1 cells = experiment: as above; type: cell-based; conditions: 10 nM, FIG. 1
Protocol: as §1, §2, §3, §4

[1] = tested on: non-seminiferous testicular cancer (germ cell testicular cancer); conditions: 75 mg/m^2, 3 infusions in one day, repeated once a week for 5 weeks; Clavel et al. 1992; cited from earlier work
833K-CP cells = experiment: Cell-Titre Glo viable cell growth and survival, 3 day decitabine; type: cell-based; conditions: 2.5 nM, FIG. 1
Protocol: as §1, §2
as §3, with “Cisplatin (Bristol Laboratories) treatments were performed at the concentrations and time points indicated. To assess cell proliferation and survival, CELL-TITRE GLO (Promega) assays were performed.” left out

833K cells = experiment: as above; type: cell-based; conditions: Homo sapiens, 72 h, 3 day treatment, FIG. 1, read-out: IC50, growth inhibition
Protocol: as §1, §2
as §3, with “Cisplatin (Bristol Laboratories) treatments were performed at the concentrations and time points indicated. To assess cell proliferation and survival, CELL-TITRE GLO (Promega) assays were performed.” left out

In the case of Nc1ncn([C@H]2C[C@H](O)[C@@H](CO)O2)c(=O)n1 [decitabine, 5-aza-deoxycytidine], the IC50 (NT2/D1 cells) is listed as 5 to 25 nM, the “inhibition of proliferation versus control” value (NT2/D1-R1 cells) is listed as 10% and the “activity in Phase II clinical trial patients” value [1] is listed as “no activity”. The inhibition at 0.0025 µM (833K-CP cells) was 10% and the IC50 (833K cells) was 5 to 25 nM.
